In patent US20020025974A1, “BICYCLE THIOPHENES AND THIAZOLES” (priority 1998, published 2002):
Where a name gives a salt, the structure may show the parent alone. Read-outs that look alike come from different tables or passages of the source.

Experiments:
[1] = target: T1, Alpha-2D adrenergic receptor (Rattus norvegicus, UniProt P22909); assay: Alpha-2D adrenergic receptor binding assay (3H-para-aminoclonidine, rat cortex synaptic membranes); settings: ligand 3H-para-aminoclonidine, 25° C. 20 min
T1 construct: aliquots of the synaptic membrane fraction, the ligand ^3H-para-aminoclonidine and test drug; from tissue; host or cells: rat brain cortex synaptic membrane fraction (male Wistar rats)
T1 sequence (P22909 1-465): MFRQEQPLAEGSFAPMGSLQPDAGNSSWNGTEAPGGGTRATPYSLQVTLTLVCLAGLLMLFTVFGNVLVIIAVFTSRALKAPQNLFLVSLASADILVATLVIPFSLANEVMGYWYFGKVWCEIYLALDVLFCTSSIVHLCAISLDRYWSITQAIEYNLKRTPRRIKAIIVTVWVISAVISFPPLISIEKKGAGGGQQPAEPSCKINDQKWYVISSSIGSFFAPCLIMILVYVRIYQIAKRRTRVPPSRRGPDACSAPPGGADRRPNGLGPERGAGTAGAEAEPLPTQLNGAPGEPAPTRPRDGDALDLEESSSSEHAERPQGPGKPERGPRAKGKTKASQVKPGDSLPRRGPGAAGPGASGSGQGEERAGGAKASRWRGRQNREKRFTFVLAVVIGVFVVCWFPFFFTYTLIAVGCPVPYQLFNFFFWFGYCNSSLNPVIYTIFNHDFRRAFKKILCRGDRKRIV
Procedure: Alpha-2D adrenergic receptor binding assay
Male, Wistar rats (150-250 g, VAF, Charles River, Kingston, N.Y.) are sacrificed by cervical dislocation and their brains removed and placed immediately in ice cold HEPES buffered sucrose. The cortex is dissected out and homogenized in 20 volumes of HEPES sucrose in a Teflon™-glass homogenizer. The homogenate is centrifuged at 1000 g for 10 min, and the resulting supernatant centrifuged at 42,000 g for 10 min. The resulting pellet is resuspended in 30 volumes of 3 mM potassium phosphate buffer, pH 7.5, preincubated at 25° C. for 30 min and recentrifuged. The resulting pellet is resuspended as described above and used for the receptor binding assay. […] The incubation is terminated by filtration of the tube contents through glass fiber filter sheets. Following washing of the sheets with 10 mM HEPES buffer, the adhering radioactivity is quantified by liquid scintillation spectrometry.
Binding of the test drug to the receptor is determined by comparing the amount of radiolabeled ligand bound in control tubes without drug to the amount of radiolabeled ligand bound in the presence of the drug. Dose-response data are analyzed with LIGAND, a nonlinear curve fitting program designed specifically for the analysis of ligand binding data.

Structure (SMILES) | Ki ([1]; α2D Ki) [nM] | further results
c1ccc2sc(Cc3c[nH]cn3)cc2c1 [Cp-1] | 1.1 | 
OC(c1c[nH]cn1)c1cc2ccccc2s1 (centres unmarked) [Cp-2] | 74.9 | 
c1ccc2sc(-c3c[nH]cn3)cc2c1 [Cp-9] |  | Ki ([1]; read-out: α2D Ki): 18 nM
c1ccc2c(Cc3c[nH]cn3)csc2c1 [Cp-6] | 0.09 | 
c1nc(Cc2nc3c(s2)CCCC3)c[nH]1 (as salt: fumaric acid salt) [Cp-11] |  | melting point: 169 to 171 °C
Brc1c(Cc2c[nH]cn2)sc2ccccc12 [Cp-4] | 0.22 | 
c1nc(Cc2nc3c(s2)CCCC3)c[nH]1 [Cp-11] |  | Ki ([1]; read-out: α2D Ki): 110 nM
CC(c1c[nH]cn1)c1cc2ccccc2s1 (centres unmarked) [Cp-3] | 14 | 
